We go through 1 compound from article PMC4595804, “A strategy to discover decoy chemokine ligands with an anti-inflammatory activity” (Scientific Reports, 2015).

The target in the experiment is T1, CCL22 (Homo sapiens, UniProt O00626).
T1 construct: codes for the mature CCL17 or CCL22 with an N-terminal thioredoxin-hexahistidin (TRX- (His)6) tag; thioredoxin (TRX) (N, cleaved yes); (His)6 (N, cleaved yes); made in house; host or cells: E. coli BL21 (DE3)
T1 sequence (O00626 25-93): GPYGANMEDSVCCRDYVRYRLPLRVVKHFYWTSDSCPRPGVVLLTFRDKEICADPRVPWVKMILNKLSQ
The experiment can be described thus: CCL22-induced CCR4+ HUT78 T cell chemotaxis (Transwell), neutraligand protocol. It is filed as cell-based. The conditions noted are these: 3 nM CCL22 preincubated 1 h with compound; read-out: IC50, inhibition of CCL22-induced HUT78 chemotaxis. The protocol:
Figure 6 (a) Selectivity of CCL17 and CCL22 neutraligands towards 10 chemokines according to the “neutraligand protocol”. […] Each column represents the mean (block) ± SD (bars) of n = 3 experiments performed in triplicate. *p < 0.05; **p < 0.01; ***p < 0.005 as compared to chemokine + DMSO. (b) Chemokine neutraligands inhibited CCR4 endocytosis induced by CCL22 or CCL17. EGFP-CCR4^+ HEK cells were incubated for 30 min with DMSO or chemokine (100 nM CCL22 or CCL17) in the presence or absence of test compounds. […] Cell surface EGFP-tagged CCR4 receptors were measured by EGFP antibody labeling and flow cytometry analysis. CCR4 internalization was expressed as a percentage of total receptor surface expression calculated using control cells incubated with DMSO (100%). […] The number of migrating cells in the presence of chemokine and compounds were expressed as the corresponding percentages. Results were analyzed by fitting the experimental curves (% of migrating cells vs log compound concentration) using the Kaleidagraph software program, and the corresponding IC50 values were calculated. […]
The T- cell line, HUT78 (ATCC), was cultured in RPMI 1640 supplemented with streptomycin, penicillin and 10% FCS without phenol red. […] After a 2 h incubation at 37 °C and 5%CO2, the plates were read with an excitation wavelength of 485 nm and an emission wavelength of 535 nm. […]

One may read the IC50 as the concentration that gives 50% inhibition. With `O=C(OCC(O)CO)c1ccccc1O` (stereo not shown) [GPN136, 2,3-dihydroxypropyl 2-hydroxybenzoate], the half-maximal inhibitory concentration (IC50) was 0.34 ± 0.1 nM.
